This passage reports Activity results from ChEMBL document CHEMBL2074023, “Reversal of acquired resistance to doxorubicin in K562 human leukemia cells by astemizole” (Biol Pharm Bull, 2000).

Data set [1] concerns the target T1, ATP-dependent translocase ABCB1 (Homo sapiens, UniProt P08183). As to the kind of experiment: TP_TRANSPORTER: inhibition of Azidopine photoaffinity labelling (Azidopine: 0.1 uM, Astemizole: 10 uM) in membranes from K562/DOX cells. The note with it: k562/adr. In kind it is functional, cell membranes, Membrane.
Data set [2] addresses T1, ATP-dependent translocase ABCB1. The data set can be described thus: TP_TRANSPORTER: increase in Doxorubicin intracellular accumulation (Doxorubicin: 4 uM, Astemizole: 3 uM) in K562/DOX cells. The note with it: k562/adr. In kind it is functional, cell-based.

T1 sequence (P08183 whole entry): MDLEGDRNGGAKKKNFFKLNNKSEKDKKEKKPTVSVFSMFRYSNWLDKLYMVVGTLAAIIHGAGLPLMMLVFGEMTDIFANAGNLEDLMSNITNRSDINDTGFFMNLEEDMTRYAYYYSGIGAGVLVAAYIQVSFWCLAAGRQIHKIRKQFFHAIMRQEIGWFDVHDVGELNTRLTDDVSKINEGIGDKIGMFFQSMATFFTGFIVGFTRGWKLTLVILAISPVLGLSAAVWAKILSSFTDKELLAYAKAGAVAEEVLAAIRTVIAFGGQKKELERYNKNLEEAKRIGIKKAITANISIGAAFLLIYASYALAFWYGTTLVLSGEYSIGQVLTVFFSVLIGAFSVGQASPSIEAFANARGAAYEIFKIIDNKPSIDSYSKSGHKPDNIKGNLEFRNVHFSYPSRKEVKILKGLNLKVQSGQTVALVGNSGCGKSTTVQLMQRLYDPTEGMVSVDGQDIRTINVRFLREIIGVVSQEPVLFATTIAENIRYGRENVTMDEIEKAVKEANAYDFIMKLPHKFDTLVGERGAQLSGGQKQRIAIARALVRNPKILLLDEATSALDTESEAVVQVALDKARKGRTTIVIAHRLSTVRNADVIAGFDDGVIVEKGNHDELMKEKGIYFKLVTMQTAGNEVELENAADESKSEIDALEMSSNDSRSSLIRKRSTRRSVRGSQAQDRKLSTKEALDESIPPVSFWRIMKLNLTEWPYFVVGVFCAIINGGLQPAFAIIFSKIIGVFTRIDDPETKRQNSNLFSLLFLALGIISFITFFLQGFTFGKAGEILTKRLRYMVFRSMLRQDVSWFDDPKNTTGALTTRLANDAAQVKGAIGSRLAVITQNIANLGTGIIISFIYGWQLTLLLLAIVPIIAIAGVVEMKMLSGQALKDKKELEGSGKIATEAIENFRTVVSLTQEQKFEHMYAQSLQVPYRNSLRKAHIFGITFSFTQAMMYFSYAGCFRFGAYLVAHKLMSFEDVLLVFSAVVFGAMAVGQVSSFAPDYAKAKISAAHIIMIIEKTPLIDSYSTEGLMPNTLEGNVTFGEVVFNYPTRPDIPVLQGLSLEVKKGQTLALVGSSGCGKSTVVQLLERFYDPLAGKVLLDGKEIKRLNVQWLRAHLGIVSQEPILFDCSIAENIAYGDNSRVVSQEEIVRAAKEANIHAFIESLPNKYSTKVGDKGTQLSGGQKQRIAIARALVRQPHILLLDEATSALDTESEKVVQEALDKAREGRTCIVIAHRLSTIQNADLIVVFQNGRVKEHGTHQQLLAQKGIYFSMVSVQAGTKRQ

With `COc1ccc(CCN2CCC(Nc3nc4ccccc4n3Cc3ccc(F)cc3)CC2)cc1` [ASTEMIZOLE], the Activity entry in data set [1] and in data set [2] was “inhibitor [+]” in each case.
